Test results reported in patent US6831199B1, “Pyrimidine compounds and derivatives thereof” (G. D. Searle & Co., priority 1995, dated 2004).
Where a name gives a salt, the structure may show the parent alone.

Tests used:
[1] = target: T1, Human vitronectin receptor (αvβ3) (Homo sapiens, UniProt P05106+P06756); experiment: Vitronectin adhesion assay (solid phase receptor assay, competition with biotinylated vitronectin); type: binding; settings: read-out: AvB3 IC50
T1 construct: Human vitronectin receptor (αvβ3) was purified from human placenta; from tissue; host or cells: human placenta
Method: VITRONECTIN ADHESION ASSAY
Assay buffer, OPD substrate tablets, and RIA grade BSA were obtained from Sigma (St. Louis, Mo.). Anti-biotin antibody was obtained from Calbiochem (La Jolla, Calif.). Linbro microtiter plates were obtained from Flow Labs (McLean, Va.). ADP reagent was obtained from Sigma (St. Louis, Mo.).
(§1) Solid Phase Receptor Assays
(§2) The purified human vitronectin receptor (αvβ3) was diluted from stock solutions to 1.0 μg/mL in Tris-buffered saline containing 1.0 mM Ca^++, Mg^++, and Mn^++, pH 7.4 (TBS^+++). The diluted receptor was immediately transferred to Linbro microtiter plates at 100 μL/well (100 ng receptor/well). The plates were sealed and incubated overnight at 4° C. to allow the receptor to bind to the wells. All remaining steps were at room temperature. The assay plates were emptied and 200 μL of 1% RIA grade BSA in TBS^+++(TBS^+++/BSA) were added to block exposed plastic surfaces. Following a 2 hour incubation, the assay plates were washed with TBS^+++ using a 96 well plate washer. Logarithmic serial dilution of the test compound and controls were made starting at a stock concentration of 2 mM and using 2 nM biotinylated vitronectin in TBS^+++/BSA as the diluent. This premixing of labeled ligand with test (or control) ligand, and subsequent transfer of 50 μL aliquots to the assay plate was carried out with a CETUS Propette robot; the final concentration of the labeled ligand was 1 nM and the highest concentration of test compound was 1.0×10^−4 M. The competition occurred for two hours after which all wells were washed with a plate washer as before. Affinity purified horseradish peroxidase labeled goat anti-biotin antibody was diluted 1:3000 in TBS^+++/BSA and 125 μL were added to each well. After 30 minutes, the plates were washed and incubated with OPD/H2O2 substrate in 100 mM/L Citrate buffer, pH 5.0. The plate was read with a microtiter plate reader at a wavelength of 450 nm and when the maximum-binding control wells reached an absorbance of about 1.0, the final A450 were recorded for analysis. The data were analyzed using a macro written for use with the EXCEL™ spreadsheet program. The mean, standard deviation, and % CV were determined for duplicate concentrations. The mean A450 values were normalized to the mean of four maximum-binding controls (no competitor added)(B-MAX). The normalized values were subjected to a four parameter curve fit algorithm [Rodbard et al., Int.

[2] = target: T2, Human fibrinogen receptor (αIIbβ3) (Homo sapiens, UniProt P05106+P08514); experiment: Purified IIb/IIIa receptor assay (solid phase receptor assay, competition with biotinylated vitronectin); type: binding; settings: read-out: IIb/IIIa IC50
T2 construct: Human fibrinogen receptor (αIIbβ3) was purified from outdated platelets; from tissue; host or cells: outdated human platelets
Method: PURIFIED IIb/IIIa RECEPTOR ASSAY
Human fibrinogen receptor (αIIbβ3) was purified from outdated platelets. […] Biotinylated human vitronectin was prepared by coupling NHS-biotin from Pierce Chemical Company (Rockford, Ill.) to purified vitronectin as previously described. […] Anti-biotin antibody was obtained from Calbiochem (La Jolla, Calif.). Linbro microtiter plates were obtained from Flow Labs (McLean, Va.). ADP reagent was obtained from Sigma (St. Louis, Mo.).
as §1
as §2, with “human fibrinogen” for “human vitronectin”, “receptor (αIIbβ3)” for “receptor (αvβ3)”, “in TBS^+++ (TBS^+++/BSA)” for “in TBS^+++(TBS^+++/BSA)”, “with […]” for “with OPD/H2O2”, “mM/L citrate” for “mM/L Citrate”, “fit algorithm, [Robard” for “fit algorithm [Rodbard”

Row | Structure (SMILES) | IC50 [1] [nM] | IC50 [2] [nM]
1 | N=C(N)Nc1cccc(C(=O)NCC(=O)NC(CC(=O)O)c2ccc(Br)c(Br)c2)c1 (racemic) [Example 207, (±)β-[[2-[[[3-[(aminoiminomethyl)amino]phenyl]carbonyl]amino]acetyl]amino]-3,4-dibromobenzenepropanoic acid, trifluoroacetate salt] | 0.9 | 148
2 | N=C(N)Nc1cccc(C(=O)NCC(=O)NC(CC(=O)O)c2cc(Br)c(O)c(Br)c2)c1 (stereo not drawn) [Example 276, β-[[2-[[[3-[(aminoiminomethyl)amino]phenyl)carbonyl]amino]acetyl]amino]-3,5-dibromo-4-hydroxybenzenepropanoic acid, trifluoroacetate salt] | 1.25 | 111
3 | Cc1cccc(C(CC(=O)O)NC(=O)CNC(=O)c2cccc(NC(=N)N)c2)n1 (racemic) [Example 246, (±)β-[[2-[[[3-[(aminoiminomethyl)amino]phenyl]carbonyl]amino]acetyl]amino]-6-methylpyridine-2-propanoic acid, bis(trifluoroacetate)salt] | 7.24 | 802
4 | N=C(Nc1cccc(C(=O)NCC(=O)NC(CC(=O)O)c2cc(Cl)cc(Cl)c2)c1)N1CCCCC1 (stereo not drawn) [Example 285, 3,5-dichloro-β-[[2-[[[3-[[imino(1-piperidinyl)methyl]amino]phenyl]carbonyl]amino]acetyl]amino]benzenepropanoic acid, trifluoroacetate salt] | 229 | 3170
5 | N=C(N)Nc1cccc(C(=O)NCC(=O)NC(CC(=O)O)c2cccc(Br)c2)c1 (racemic) [Example 185, (±)β-[[2-[[[3-[(aminoiminomethyl)amino]phenyl]carbonyl]amino]acetyl]amino]-3-bromobenzenepropanoic acid, trifluoroacetate salt] | 1.47 | 166
6 | N=C(N)Nc1cccc(C(=O)NCC(=O)NC(CC(=O)O)C(=O)NCCO)c1 (racemic) [Example 89, (±)3-[[2-[[[3-[(aminoiminomethyl)amino]phenyl]carbonyl]amino]acetyl]amino]-4-[(2-hydroxyethyl)amino]-4-oxobutanoic acid, trifluoroacetate salt] | 1240 | 9830
7 | N=C(N)Nc1cccc(C(=O)NCC(=O)NC(CC(=O)O)c2cc3ccccc3o2)c1 (stereo not drawn) [Example 259, β-[[2-[[[3-[(aminoiminomethyl)amino]phenyl]carbonyl]amino]acetyl]amino]benzofuran-2-propanoic acid, trifluoroacetate salt] | 0.81 | 86.7
8 | N=C(N)Nc1cccc(C(=O)NC2(C(=O)NC(CC(=O)O)c3cccnc3)CC2)c1 (stereo not drawn) [Example 19, β-[[1-[[[3-[(aminoiminomethyl)amino]phenyl]carbonyl]amino]cycloprop-1-yl]carbonyl]amino]pyridine-3-propanoic acid, bis(trifluoroacetate)salt] | 303 | 72000
9 | CSc1cccc(C(CC(=O)O)NC(=O)CNC(=O)c2cccc(NC(=N)N)c2)c1 (racemic) [Example 245, (±)β-[[2-[[[3-[(aminoiminomethyl)amino]phenyl]carbonyl]amino]acetyl]amino]-3-(methylthio)benzenepropanoic acid, trifluoroacetate salt] | 0.96 | 134
10 | N=C(N)Nc1cccc(C(=O)NCC(=O)NC(CC(=O)O)c2ncc[nH]2)c1 (racemic) [Example 364, (±)β-[[2-[[[3-[(aminoiminomethyl)amino]phenyl]carbonyl]amino]acetyl]amino]-1H-imidazole-2-propanoic acid, tris(trifluoroacetate)salt] | 3.58 | 223
11 | COc1cc(C(CC(=O)O)NC(=O)CNC(=O)c2cccc(NC(=N)N)c2)cc(Br)c1OC (racemic) [Example 262, (±)β-[[2-[[[3-[(aminoiminomethyl)amino]phenyl]carbonyl]amino]acetyl]amino]-3-bromo-4,5-dimethoxybenzenepropanoic acid, trifluoroacetate salt] | 1.24 | 172
